Calls of active or inactive are those of the source. No cut-off for these calls is given here. *1 amine or outer side, *2 acyl side, *3 side chain or, on linkers, in order; H or OH if unused. Where a SMILES comes first, the peptide text is derived from it. [ ]: non-standard residue; d: D form. The star is where a group is joined. NH(CH2)2O(CH2)2NH2 = NCCOCCN*; ΔPro = O=C(O)[C@@H]1C=CCN1; CO = O=C([*:1])[*:2]; Bn = c1ccc(C*)cc1; GABA = NCCCC(=O)O; βAla = NCCC(=O)O
How the values were obtained:
HL-60 [1] = assay: Induction of apoptosis in human HL60 cells assessed as reduction in accumulation at G2/M phase after 24 hrs by propidium iodide staining based flow cytometric analysis; assay type: functional, cell-based
HL-60 [2] = assay: Induction of apoptosis in human HL60 cells assessed as accumulation at subG0/G1 phase at 50 uM after 24 hrs by Annexin V and propidium iodide staining based flow cytometric analysis (reference value: 3.14 +/- 0.9 %); assay type: functional
HL-60 [3] = assay: Induction of apoptosis in human HL60 cells assessed as loss of mitochondrial inner transmembrane potential at 50 uM after 24 hrs by TMRM dye based flow cytometric analysis; assay type: functional, cell-based
HL-60 [4] = assay: Induction of apoptosis in human HL60 cells assessed as accumulation at subG0/G1 phase after 24 hrs by Annexin V and propidium iodide staining based flow cytometric analysis; assay type: functional, cell-based
HL-60 [5] = assay: Induction of apoptosis in human HL60 cells assessed as reduction in accumulation at G0/G1 phase after 24 hrs by propidium iodide staining based flow cytometric analysis; assay type: functional, cell-based
Tubulin (Sus scrofa) [6] = target: T1, Tubulin (Sus scrofa) (UniProt P02554+P02550); assay: Induction of pig tubulin polymerization at 10 uM after 60 mins by spectroscopic analysis; assay type: protein assay
MCF7 = assay: Induction of apoptosis in human MCF7 cells assessed as accumulation at subG0/G1 phase at 50 uM after 48 hrs by Annexin V and propidium iodide staining based flow cytometric analysis (reference value: 8.5 +/- 2.4 %); assay type: functional
RBL-2H3 = assay: Induction of tubulin polymerization in rat RBL2H3 cells assessed as induction of alteration of microtubule network at 50 uM preincubated for 16 hrs measured after 24 hrs by confocal laser scanning microscopic analysis; assay type: cell-based
[7] = Induction of apoptosis in human EBV-B cells assessed as accumulation at subG0/G1 phase at 25 uM after 24 hrs by Annexin V and propidium iodide staining based flow cytometric analysis (reference value: 1.6 %); assay type: functional
B16-F1 = assay: Induction of apoptosis in mouse B16-F1 cells assessed as accumulation at subG0/G1 phase at 50 uM after 24 hrs Annexin V and propidium iodide staining based flow cytometric analysis (reference value: 1.9 +/- 1.6 %); assay type: functional
A-375 [8] = assay: Induction of apoptosis in human A375 cells assessed as accumulation at subG0/G1 phase at 50 uM after 72 hrs by Annexin V and propidium iodide staining based flow cytometric analysis (reference value: 7 +/- 1 %); assay type: functional
Jurkat = assay: Induction of apoptosis in human Jurkat cells assessed as accumulation at subG0/G1 phase at 25 uM after 24 hrs by Annexin V and propidium iodide staining based flow cytometric analysis (reference value: 3.9 %); assay type: functional
B16-F10 = assay: Induction of apoptosis in mouse B16F10 cells assessed as accumulation at subG0/G1 phase at 50 uM after 24 hrs by Annexin V and propidium iodide staining based flow cytometric analysis (reference value: 3.7 +/- 3 %); assay type: functional
[9] = Induction of apoptosis in human 501mel cells assessed as accumulation at subG0/G1 phase at 50 uM after 72 hrs by Annexin V and propidium iodide staining based flow cytometric analysis (reference value: 9 +/- 1.8%); assay type: functional
HL-60 [10] = assay: Induction of apoptosis in human HL60 cells assessed as accumulation at subG0/G1 phase at 25 uM after 24 hrs by Annexin V and propidium iodide staining based flow cytometric analysis (reference value: 5 %); assay type: functional
Tubulin (Sus scrofa) [11] = target: T1, Tubulin (Sus scrofa); assay: Induction of pig tubulin polymerization at 100 uM after 60 mins by spectroscopic analysis; assay type: protein assay
A-375 [12] = assay: Induction of apoptosis in human A375 cells assessed as accumulation at subG0/G1 phase at 50 uM after 24 hrs by Annexin V and propidium iodide staining based flow cytometric analysis (reference value: 7 +/- 1 %); assay type: functional, cell-based
HL-60 [13] = assay: Induction of apoptosis in human HL60 cells assessed as accumulation at subG0/G1 phase at 100 uM after 24 hrs by Annexin V and propidium iodide staining based flow cytometric analysis (reference value: 3.14 +/- 0.9 %); assay type: functional
Homo sapiens [14] = species on record: Homo sapiens; assay: Induction of apoptosis in human 501mel cells assessed as accumulation at subG0/G1 phase at 50 uM after 24 hrs by Annexin V and propidium iodide staining based flow cytometric analysis (reference value: 9 +/- 1.8 %); assay type: functional, cell-based
Homo sapiens [15] = species on record: Homo sapiens; assay: Induction of apoptosis in human 501mel cells assessed as accumulation at subG0/G1 phase at 100 uM after 72 hrs by Annexin V and propidium iodide staining based flow cytometric analysis; assay type: functional, cell-based
A-375 [16] = assay: Induction of apoptosis in human A375 cells assessed as accumulation at subG0/G1 phase at 100 uM after 72 hrs by Annexin V and propidium iodide staining based flow cytometric analysis; assay type: functional, cell-based

T1 sequence (P02550 whole entry, looked up): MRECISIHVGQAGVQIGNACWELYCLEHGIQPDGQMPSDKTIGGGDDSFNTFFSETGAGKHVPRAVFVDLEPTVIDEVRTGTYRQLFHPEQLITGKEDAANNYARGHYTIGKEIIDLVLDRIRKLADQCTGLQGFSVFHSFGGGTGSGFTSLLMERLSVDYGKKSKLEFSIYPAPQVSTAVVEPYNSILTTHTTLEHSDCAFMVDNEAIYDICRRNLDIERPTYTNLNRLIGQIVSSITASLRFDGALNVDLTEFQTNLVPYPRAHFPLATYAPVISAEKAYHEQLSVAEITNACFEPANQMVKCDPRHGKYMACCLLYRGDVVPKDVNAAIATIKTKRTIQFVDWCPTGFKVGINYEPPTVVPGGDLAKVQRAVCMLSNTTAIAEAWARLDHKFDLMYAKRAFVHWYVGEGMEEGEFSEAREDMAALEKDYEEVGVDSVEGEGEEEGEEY
T1 sequence (P02554 whole entry, looked up): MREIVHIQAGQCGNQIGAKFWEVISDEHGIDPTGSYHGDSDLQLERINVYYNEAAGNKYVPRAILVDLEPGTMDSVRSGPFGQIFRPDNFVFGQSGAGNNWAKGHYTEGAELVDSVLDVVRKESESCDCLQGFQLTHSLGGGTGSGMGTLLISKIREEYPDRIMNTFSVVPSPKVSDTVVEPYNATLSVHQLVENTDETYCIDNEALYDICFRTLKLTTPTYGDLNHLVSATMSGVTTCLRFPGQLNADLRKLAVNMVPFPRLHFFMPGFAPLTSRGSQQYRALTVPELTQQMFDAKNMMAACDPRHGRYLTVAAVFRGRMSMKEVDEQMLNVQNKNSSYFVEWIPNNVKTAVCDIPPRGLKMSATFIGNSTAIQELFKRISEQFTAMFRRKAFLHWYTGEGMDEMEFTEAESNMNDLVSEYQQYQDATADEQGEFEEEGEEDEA

In the case of `CC[C@H](C)[C@@H]1NC(=O)NCCOCCCNC(=O)[C@H](Cc2ccccc2)NC(=O)[C@H](Cc2ccc(OCc3ccccc3)cc2)NC(=O)[C@@H]2C=CCN2C(=O)[C@H](C(C)C)NC1=O`, the Activity (HL-60 [1]) is reported as “Dose-dependent effect”, the Activity (HL-60 [2]) is reported as 77% and the Activity (HL-60 [3]) is reported as “Active”. The Activity (HL-60 [4]) was “Dose-dependent effect” and the Activity (HL-60 [5]) was “Dose-dependent effect”.

In the case of `CC[C@H](C)[C@@H]1NC(=O)NCCOCCNC(=O)[C@H](Cc2ccccc2)NC(=O)[C@H](Cc2ccc(O)cc2)NC(=O)[C@@H]2C=CCN2C(=O)[C@H](C(C)C)NC1=O`, the Activity (HL-60 [2]) is reported as 5%.

For `CC(=O)O[C@H]1C(=O)[C@@]2(C)[C@H]([C@H](OC(=O)c3ccccc3)[C@]3(O)C[C@H](OC(=O)[C@H](O)[C@@H](NC(=O)c4ccccc4)c4ccccc4)C(C)=C1C3(C)C)[C@]1(OC(C)=O)CO[C@@H]1C[C@@H]2O`, the Activity (Tubulin (Sus scrofa) [6]) was “Active”.

For `CC[C@H](C)[C@H](NC(=O)[C@@H]1CCCN1C(=O)[C@@H]1CCCN1C(C)=O)C(=O)N[C@H](C(=O)N1CCC[C@H]1C(=O)N[C@@H](Cc1ccc(O)cc1)C(=O)N[C@@H](Cc1ccccc1)C(=O)N(C)C)C(C)C` (Ac-PPIVPYF-NMe2), the Activity (HL-60 [2]) was “inactive”.

In the case of `CC[C@H](C)[C@H](NC(=O)[C@@H]1CCCN1C(=O)[C@@H]1CCCN1C(=O)CCCN)C(=O)N[C@H](C(=O)NCC(=O)N[C@@H](Cc1ccc(O)cc1)C(=O)N[C@@H](Cc1ccccc1)C(=O)O)C(C)C` (H-[GABA]PPIVGYF-OH), the Activity (HL-60 [2]) is reported as “inactive”.

With `CC[C@H](C)[C@H](NC(=O)[C@@H]1CCCN1C(=O)[C@@H]1CCCN1C(=O)CCCN)C(=O)N[C@H](C(=O)N1CCC[C@H]1C(=O)N[C@@H](Cc1ccc(O)cc1)C(=O)N[C@@H](Cc1ccccc1)C(=O)O)C(C)C` (H-[GABA]PPIVPYF-OH) the Activity (HL-60 [2]) was “inactive”.

For `CC[C@H](C)[C@H](NC(=O)[C@@H]1CCCN1C(=O)[C@@H]1CCCN1C(=O)CCCN)C(=O)N[C@H](C(=O)N1CC=C[C@H]1C(=O)N[C@@H](Cc1ccc(O)cc1)C(=O)N[C@@H](Cc1ccccc1)C(=O)O)C(C)C` (H-[GABA]PPIV[ΔPro]YF-OH), the Activity (HL-60 [2]) was “inactive”.

With `CC[C@H](C)[C@H](NC(=O)[C@@H]1CCCN1C(=O)[C@@H]1CCCN1C(=O)CCN)C(=O)N[C@H](C(=O)NCC(=O)N[C@@H](Cc1ccc(O)cc1)C(=O)N[C@@H](Cc1ccccc1)C(=O)O)C(C)C` (H-[βAla]PPIVGYF-OH) the Activity (HL-60 [2]) was “inactive”.

For `CC[C@H](C)[C@@H]1NC(=O)[C@@H]2CCCN2C(=O)[C@@H]2CCCN2C(=O)CNC(=O)[C@H](Cc2ccccc2)NC(=O)[C@H](Cc2ccc(O)cc2)NC(=O)[C@@H]2CCCN2C(=O)[C@H](C(C)C)NC1=O` (cyclo(FGPPIVPY)), the Activity (HL-60 [1]) was “Dose-dependent effect”, the Activity (MCF7) was 17.3% and the Activity (HL-60 [2]) was 42%. The Activity (HL-60 [3]) was “Active”, the Activity (RBL-2H3) was “Active” and the Activity (HL-60 [4]) was “Dose-dependent effect”. The Activity (HL-60 [5]) was “Dose-dependent effect”.

With `CC[C@H](C)[C@@H]1NC(=O)[C@@H]2CCCN2C(=O)[C@@H]2CCCN2C(=O)CCCNC(=O)[C@H](Cc2ccccc2)NC(=O)[C@H](Cc2ccc(O)cc2)NC(=O)CNC(=O)[C@H](C(C)C)NC1=O` (cyclo(F[GABA]PPIVGY)) the Activity (HL-60 [2]) was 11%.

For `CC[C@H](C)[C@@H]1NC(=O)[C@@H]2CCCN2C(=O)[C@@H]2CCCN2C(=O)CCCNC(=O)[C@H](Cc2ccccc2)NC(=O)[C@H](Cc2ccc(O)cc2)NC(=O)[C@@H]2CCCN2C(=O)[C@H](C(C)C)NC1=O` (cyclo(F[GABA]PPIVPY)), the Activity (HL-60 [1]) was “Dose-dependent effect”, the Activity (MCF7) was 11.8% and the Activity [7] was 11.4%. For the same compound, the Activity (B16-F1) was 13.9%, the Activity (A-375 [8]) was 48% and the Activity (Jurkat) was 12%. For the same compound, the Activity (HL-60 [2]) was 56.6%, the Activity (B16-F10) was 13.6% and the Activity [9] was 17%. The Activity (HL-60 [10]) was 17%, the Activity (HL-60 [3]) was “Active” and the Activity (RBL-2H3) was “Active”. For the same compound, the Activity (HL-60 [4]) was “Dose-dependent effect” and the Activity (HL-60 [5]) was “Dose-dependent effect”.

`CC[C@H](C)[C@@H]1NC(=O)[C@@H]2CCCN2C(=O)[C@@H]2CCCN2C(=O)CCCNC(=O)[C@H](Cc2ccccc2)NC(=O)[C@H](Cc2ccc(O)cc2)NC(=O)[C@@H]2C=CCN2C(=O)[C@H](C(C)C)NC1=O` (cyclo(F[GABA]PPIV[ΔPro]Y)) showed an Activity (HL-60 [2]) of 7%.

With `CC[C@H](C)[C@@H]1NC(=O)[C@@H]2CCCN2C(=O)[C@@H]2CCCN2C(=O)CCNC(=O)[C@H](Cc2ccccc2)NC(=O)[C@H](Cc2ccc(O)cc2)NC(=O)[C@@H]2CCCN2C(=O)[C@H](C(C)C)NC1=O` (cyclo(F[βAla]PPIVPY)) the Activity (HL-60 [1]) was “Dose-dependent effect”, the Activity (MCF7) was 18.9% and the Activity (HL-60 [2]) was 33.1%. For the same compound, the Activity (HL-60 [3]) was “Active”, the Activity (HL-60 [4]) was “Dose-dependent effect” and the Activity (HL-60 [5]) was “Dose-dependent effect”. For the same compound, the Activity (Tubulin (Sus scrofa) [11]) was “Active”.

For `CC[C@H](C)[C@H](NC(=O)NCCOCCN)C(=O)N[C@H](C(=O)N1CC=C[C@H]1C(=O)N[C@@H](Cc1ccc(OCc2ccccc2)cc1)C(=O)N[C@@H](Cc1ccccc1)C(=O)O)C(C)C` ({NH(CH2)2O(CH2)2NH2-CO}-IV[ΔPro]Y(Bn)F-OH), the Activity (HL-60 [2]) was “inactive”.

With Ac-LVPPPPIVPYF-NH2 the Activity (A-375 [12]) was “inactive”, the Activity (MCF7) was “inactive” and the Activity [7] was 2.3%. For the same compound, the Activity (B16-F1) was “inactive”, the Activity (HL-60 [13]) was 6.5% and the Activity (Homo sapiens [14]) was “inactive”. The Activity (Jurkat) was 4%, the Activity (HL-60 [2]) was “inactive” and the Activity (B16-F10) was “inactive”. For the same compound, the Activity (HL-60 [10]) was 7.7%, the Activity (Homo sapiens [15]) was “inactive” and the Activity (A-375 [16]) was “inactive”.

In the case of Ac-LVPPPPIVPYF-OH, the Activity (HL-60 [13]) is reported as 7.2% and the Activity (HL-60 [2]) is reported as “inactive”.

For Ac-PPIVPYF-OH, the Activity (HL-60 [2]) was “inactive”.

In the case of Ac-VPPPPI-NH2, the Activity (HL-60 [2]) is reported as “inactive”.

With H-GPPIVPYF-OH the Activity (HL-60 [2]) was “inactive”.
